Assay: Solubilization of dehydroacetic acid by ethyl lactate
Format: physicochemical
Settings: 5.0 parts of dehydroacetic acid in 100 ml of ethyl lactate, room temperature

CC(=O)C1C(=O)C=C(C)OC1=O (stereo not shown) [dehydroacetic acid]
solubility in ethyl lactate (appearance of solution): clear solution
